# Values quoted from earlier work, collected in patent publication US20170312324A1, “USE OF MAITAKE AND MAITAKE GRIFOLAN D COMPONENT IN PREPARATION OF ANTIDEPRESSANT DRUG” (Yunnan University, priority 2014, published 2017).
# Tested on: tumor
# Details: comparison experiment with mitomycin
structure (smiles),measurement,value
CO[C@@]12[C@H](COC(N)=O)C3=C(C(=O)C(C)=C(N)C3=O)N1C[C@@H]1N[C@@H]12 [mitomycin],anti-tumor rate / tumor inhibition rate,45%
